Organism: Rattus norvegicus
Assay: DrugMatrix - Regimen: Daily Repeat
Type: toxicity, organism-based, Sprague-Dawley
Set-up: regimen Daily Repeat, gender Male, age 6-8 weeks
Conditions: in vivo, po, route oral GAVAGE, […]; for ABSOLUTE BASOPHIL / ABSOLUTE EOSINOPHIL / ABSOLUTE LYMPHOCYTE / ABSOLUTE MONOCYTE / ABSOLUTE SEGMENTED NEUTROPHIL / BASOPHIL / EOSINOPHIL / ERYTHROCYTE COUNT / HEMATOCRIT / HEMOGLOBIN / LEUKOCYTE COUNT / LYMPHOCYTE / MEAN CORPUSCULAR HEMOGLOBIN / MEAN CORPUSCULAR HEMOGLOBIN CONCENTRATION / MEAN CORPUSCULAR VOLUME / MONOCYTE / NEUTROPHIL / NUCLEATED RED BLOOD CELLS / PLATELET COUNT: tissue Blood; for ALANINE AMINOTRANSFERASE / ALBUMIN / ALKALINE PHOSPHATASE / ASPARTATE AMINOTRANSFERASE / BLOOD UREA NITROGEN / CARBON DIOXIDE / CHLORIDE / CHOLESTEROL / CREATINE PHOSPHOKINASE / CREATININE / GLUCOSE / LACTATE DEHYDROGENASE / LIPASE / PHOSPHORUS / POTASSIUM / SODIUM / TOTAL BILIRUBIN / TOTAL PROTEIN / URIC ACID: tissue Plasma
[1] = 0 mg/kg, 72 h, dose level Control, time 3 day
[2] = 0 mg/kg, 120 h, dose level Control, time 5 day
[3] = 5 mg/kg, 72 h, dose level Low, time 3 day

## CC(C)n1c(/C=C/C(O)CC(O)CC(=O)O)c(-c2ccc(F)cc2)c2ccccc21 (centres undefined) [FLUVASTATIN]
[1]
  ABSOLUTE BASOPHIL: 0 CELLS/uL
  ABSOLUTE EOSINOPHIL: 33 CELLS/uL
  ABSOLUTE LYMPHOCYTE: 9048.5 CELLS/uL
  ABSOLUTE MONOCYTE: 80.17 CELLS/uL
  ABSOLUTE SEGMENTED NEUTROPHIL: 1521.67 CELLS/uL
  BASOPHIL: 0%
  EOSINOPHIL: 0.17%
  ERYTHROCYTE COUNT: 5.46 x10E6/uL
  HEMATOCRIT: 32.87%
  HEMOGLOBIN: 12.95 G/DL
  LEUKOCYTE COUNT: 10.68 x10E3/uL
  LYMPHOCYTE: 86.67%
  MEAN CORPUSCULAR HEMOGLOBIN: 23.72 pg
  MEAN CORPUSCULAR HEMOGLOBIN CONCENTRATION: 39.4 G/DL
  MEAN CORPUSCULAR VOLUME: 60.18 fL
  MONOCYTE: 0.83%
  NEUTROPHIL: 12.33%
  NUCLEATED RED BLOOD CELLS: 0 /100WBC
  PLATELET COUNT: 1211.33 x10E3/uL
  ALANINE AMINOTRANSFERASE: 76.67 u/L
  ALBUMIN: 3.93 G/DL
  ALKALINE PHOSPHATASE: 317.17 u/L
  ASPARTATE AMINOTRANSFERASE: 81.17 u/L
  BLOOD UREA NITROGEN: 12.33 mg/dL
  CARBON DIOXIDE: 31.17 mmol/L
  CHLORIDE: 98.33 MEQ/L
  CHOLESTEROL: 67.17 mg/dL
  CREATINE PHOSPHOKINASE: 312.33 u/L
  CREATININE: 0.19 mg/dL
  GLUCOSE: 165.5 mg/dL
  LACTATE DEHYDROGENASE: 94.5 u/L
  LIPASE: 9.83 u/L
  PHOSPHORUS: 10.1 mg/dL
  POTASSIUM: 5.16 MEQ/L
  SODIUM: 143.02 MEQ/L
  TOTAL BILIRUBIN: 0.2 mg/dL
  TOTAL PROTEIN: 5.88 G/DL
  URIC ACID: 0.68 mg/dL
[2]
  ABSOLUTE BASOPHIL: 0 CELLS/uL
  ABSOLUTE EOSINOPHIL: 14.67 CELLS/uL
  ABSOLUTE LYMPHOCYTE: 9629.83 CELLS/uL
  ABSOLUTE MONOCYTE: 72.5 CELLS/uL
  ABSOLUTE SEGMENTED NEUTROPHIL: 1049.67 CELLS/uL
  BASOPHIL: 0%
  EOSINOPHIL: 0.17%
  ERYTHROCYTE COUNT: 5.36 x10E6/uL
  HEMATOCRIT: 33.82%
  HEMOGLOBIN: 13.48 G/DL
  LEUKOCYTE COUNT: 10.77 x10E3/uL
  LYMPHOCYTE: 90.17%
  MEAN CORPUSCULAR HEMOGLOBIN: 25.28 pg
  MEAN CORPUSCULAR HEMOGLOBIN CONCENTRATION: 39.92 G/DL
  MEAN CORPUSCULAR VOLUME: 63.3 fL
  MONOCYTE: 0.67%
  NEUTROPHIL: 9%
  NUCLEATED RED BLOOD CELLS: 0.17 /100WBC
  PLATELET COUNT: 1275.33 x10E3/uL
  ALANINE AMINOTRANSFERASE: 93.67 u/L
  ALBUMIN: 4.17 G/DL
  ALKALINE PHOSPHATASE: 402.5 u/L
  ASPARTATE AMINOTRANSFERASE: 122.83 u/L
  BLOOD UREA NITROGEN: 14.75 mg/dL
  CARBON DIOXIDE: 26.4 mmol/L
  CHLORIDE: 98.5 MEQ/L
  CHOLESTEROL: 57.5 mg/dL
  CREATINE PHOSPHOKINASE: 305.17 u/L
  CREATININE: 0.21 mg/dL
  GLUCOSE: 142 mg/dL
  LACTATE DEHYDROGENASE: 83.5 u/L
  LIPASE: 85.83 u/L
  PHOSPHORUS: 8.18 mg/dL
  POTASSIUM: 5.46 MEQ/L
  SODIUM: 144 MEQ/L
  TOTAL BILIRUBIN: 0.25 mg/dL
  TOTAL PROTEIN: 5.63 G/DL
  URIC ACID: 0.8 mg/dL
[3]
  ABSOLUTE BASOPHIL: 0 CELLS/uL
  ABSOLUTE EOSINOPHIL: 0 CELLS/uL
  ABSOLUTE LYMPHOCYTE: 7777.67 CELLS/uL
  ABSOLUTE MONOCYTE: 91 CELLS/uL
  ABSOLUTE SEGMENTED NEUTROPHIL: 864.67 CELLS/uL
  BASOPHIL: 0%
  EOSINOPHIL: 0%
  ERYTHROCYTE COUNT: 5.27 x10E6/uL
  HEMATOCRIT: 32.97%
  HEMOGLOBIN: 13.1 G/DL
  LEUKOCYTE COUNT: 8.73 x10E3/uL
  LYMPHOCYTE: 89%
  MEAN CORPUSCULAR HEMOGLOBIN: 24.87 pg
  MEAN CORPUSCULAR HEMOGLOBIN CONCENTRATION: 39.77 G/DL
  MEAN CORPUSCULAR VOLUME: 62.47 fL
  MONOCYTE: 1%
  NEUTROPHIL: 10%
  NUCLEATED RED BLOOD CELLS: 0 /100WBC
  PLATELET COUNT: 1163 x10E3/uL
  ALANINE AMINOTRANSFERASE: 67 u/L
  ALBUMIN: 3.93 G/DL
  ALKALINE PHOSPHATASE: 305.67 u/L
  ASPARTATE AMINOTRANSFERASE: 95.33 u/L
  BLOOD UREA NITROGEN: 12 mg/dL
  CARBON DIOXIDE: 30.67 mmol/L
  CHLORIDE: 98 MEQ/L
  CHOLESTEROL: 76 mg/dL
  CREATINE PHOSPHOKINASE: 453.67 u/L
  CREATININE: 0.18 mg/dL
  GLUCOSE: 193.33 mg/dL
  LACTATE DEHYDROGENASE: 209.33 u/L
  LIPASE: 9.67 u/L
  PHOSPHORUS: 10.07 mg/dL
  POTASSIUM: 5.48 MEQ/L
  SODIUM: 142.9 MEQ/L
  TOTAL BILIRUBIN: 0.2 mg/dL
  TOTAL PROTEIN: 5.8 G/DL
  URIC ACID: 0.63 mg/dL

— ChEMBL document CHEMBL3885881, “DrugMatrix”
